The text below walks through data of patent US6867283B2, “Peptides capable of binding to MHC molecules, cells presenting such peptides, and pharmaceutical compositions comprising such peptides and/or cells” (Technion Research & Development Foundation Ltd., priority 2001, dated 2005).

The test system of experiment [1] is EL4-HHD cells loaded with the peptides. The experiment in a line: Cytotoxic T lymphocytes assay after immunization of HHD transgenic mice with peptide-loaded cells. The class given is in vivo. Conditions: compared to negative control peptide ALLCAPSLL; effector-to-target ratio of 50:1 shown. The source says:
Cells were loaded separately with individual peptides, washed and injected in four groups: 1-p1028 (SEQ ID NO:13) alone, 2- p1258 (SEQ ID NO:24) alone, 3-pool of peptides: p913 (SEQ ID NO:5), p958 (SEQ ID NO:9), p989 of CD59 (SEQ ID NO:11) and p989 of FLI (SEQ ID NO:12), 4- peptides p1031 (SEQ ID NO:14), p1121 (SEQ ID NO:22) and p1068 (SEQ ID NO:16). Unloaded EL4-HHD or targets cells not loaded with the peptides were used as negative controls. An effector-to-target ratio of 50:1 is shown,
Transgenic mice expressing a single chain HLA-A2.1/Db-β2 m which are double knockout for H-2 Db and for β2 m (HHD mice) were immunized four times intra-peritoneally at 7-day interval with 2×10^6 irradiated (5,000 rad) RMA-S-HHD-B7.1 cells loaded for two hours at 26° C. followed by two hours at 37° C. with 100 μM of the synthetic peptides. Ten days after the last immunization the spleens were removed from the vaccinated mice. Splenocytes were re-stimulated with 100 μM of synthetic peptides for five days. Viable lymphocytes were separated by lympholyte-M (Cadarlane, Hornby, Canada) and resuspended in RPMI-HEPES. Cytotoxic activity was measured as in [26] by admixing the lymphocytes at different ratios with 5×10^3 EL4-HHD cells grown in medium containing ^35S methionine and then loaded wit the synthetic peptides.
To further evaluate the affinity of the peptides to the HLA-A2 and to obtain some insight into their immunogenic potential, selected peptides were tested for their ability to induce an immune response in HLA-A2 transgenic mice. It was assumed that only peptides that could be effectively presented and remain tightly bound to the cells would be capable of inducing an immune response in these mice. The same synthetic peptides that were used for the FACS analysis were used for immunization of the HHD transgenic mice, which express the human HLA-A2.1/Db-β2 m single chain. To immunize the mice, the HHD culture cells were loaded with the different peptides and then injected to the HHD mice. The immune response in the mice was followed by the appearance of CTLs specific for these peptides. Some of the peptides were indeed capable of inducing an immune response, which both authenticate them as MHC bound peptides and gives an indication about their immunogenic potential.

Experiment [2] deals with T1, HLA-A2.1.
T1 construct: expressed in transfected cells; host or cells: RMA-S (murine TAP-2 deficient lymphoma, C57BL/6 origin)
The experiment in a line: Stabilization of cell surface HLA-A2.1 by peptide binding (reconstitution into empty MHC on RMA-S-HHD cells, FACS). It is filed as cell-based, human. Conditions: synthetic peptide 100 μM, FACS with W6/32 mAb. As to the method:
Synthetic peptides were added to 10^6 RMA-S-HHD cells to a concentration of 100 μM followed by incubation for two hours at 26° C. and two hours at 37° C. […] The HLA-A2.1 peptide derived from gp100 served as a positive control and unloaded RMA-S-HHD cells as a negative control.
RMA-S-HHD cells were washed three times with PBS followed by incubation overnight in FCS-free IMDM medium at 26° C. Synthetic peptides were added to 10^6 cells at a concentration of 100 μM. The cells were incubated for two hours at 26° C. followed by two hours at 37° C. […] (Sigma).
Another approach to ascertain that the identified peptides were indeed MHC bound peptide antigens, their capacity to bind tightly and stabilize cell surface HLA-A2.1 was tested by reconstitution into empty MHC on the surface of RMA-S-HHD cells.

T1 sequence (P61769 with tags, fused parts or gaps): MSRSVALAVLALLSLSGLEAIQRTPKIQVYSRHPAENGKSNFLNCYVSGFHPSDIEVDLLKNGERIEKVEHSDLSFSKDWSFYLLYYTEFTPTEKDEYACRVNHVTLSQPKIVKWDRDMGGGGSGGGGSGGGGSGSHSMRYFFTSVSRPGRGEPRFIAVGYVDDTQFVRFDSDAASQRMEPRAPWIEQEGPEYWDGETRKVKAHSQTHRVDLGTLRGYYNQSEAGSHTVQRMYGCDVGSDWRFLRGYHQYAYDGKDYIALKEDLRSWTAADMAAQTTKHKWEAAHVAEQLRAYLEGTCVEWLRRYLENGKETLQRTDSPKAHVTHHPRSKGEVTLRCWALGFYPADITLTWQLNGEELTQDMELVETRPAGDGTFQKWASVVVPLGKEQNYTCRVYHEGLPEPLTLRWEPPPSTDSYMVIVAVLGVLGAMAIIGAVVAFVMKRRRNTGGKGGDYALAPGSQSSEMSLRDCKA

Regarding GLIEKNIEL, the “lysis of peptide-loaded EL4-HHD cells by CTLs from immunized HHD mice” value (shortened to “lysis of peptide-loaded EL4-HHD cells”) in experiment [1] was “significant lysis”.

For the sequence ALSDHHIYL, the “lysis of peptide-loaded EL4-HHD cells” value in experiment [1] is on record as “significant lysis”.

Turning to TLWVDPYEV, the “lysis of peptide-loaded EL4-HHD cells” value in experiment [1] is given as “significant lysis”.

In the case of FLFDGSPTYVL, in experiment [1], the “lysis of peptide-loaded EL4-HHD cells” value is recorded as “significant lysis”.

GVYDGEEHSV: the “binding affinity to HLA-A2 / stabilization of empty MHC on the surface of RMA-S-HHD cells” value in experiment [2] is on record as “normal”.
